Assay results: patent US20260207626A1, “SYNTHETIC TRITERPENOIDS AND COMPOSITIONS THEREOF IN WEIGHT MANAGEMENT, SKELETAL MUSCLE FUNCTION, AND APPETITE SUPPRESSION” (The Board of Regents of the University of Texas System, priority 2022, published 2026)
Values joined by “and” are separate entries in the source; they are usually repeats but may differ in a detail not shown here. Equal values may be shown once.

Columns and labels:
[1] = system: MCP-1; assay: LPS-induced MCP-1 ELISA in RAW264.7 macrophages (CDDO-EA batches); format: cell-based, mouse; conditions: for MCP-1 production: LPS-induced, macrophages in cell culture; for MCP-1 level (ELISA), average: Table 4 (two values); for fold difference in the decrease of MCP-1 production: versus LPS alone
Experimental: Macrophages were pre-treated with 500 nM CDDO-EA #1 or 500 nM CDDO-EA #2, for 1 hour. The microphages were then stimulated with 100 ng/ml of lipopolysaccharide (LPS) for 6 hr. Supernatants were collected from each culture. An enzyme linked immunoassay (ELISA) was performed to detect levels of the pro-inflammatory protein, monocyte chemotactic protein-1 (MCP-1). The macrophages were also treated with LPS alone or with CDDO-EA alone. A control (no treatment) group was also included in the study.
The second batch of CDDO-EA was tested for its biological property of anti-inflammatory activity. As with the first batch of CDDO-EA, this was tested by using the mouse macrophage cell line RAW264.7. RAW264.7 macrophages were pre-treated with 500 nM CDDO-EA for 1 hour then stimulated with 100 ng/ml of lipopolysaccharide (LPS) for 6 hr. Supernatants were collected, and an enzyme linked immunoassay (ELISA) was performed to detect the pro-inflammatory protein, monocyte chemotactic protein-1 (MCP-1). The macrophages were also treated with LPS alone or with CDDO-EA alone. A control (no treatment) group was also included in the study. […] This suppression of MCP-1 production by the second batch CDDO-EA is similar to that observed for the first batch of CDDO-EA. (See FIG. 21).

[2] = system: transforming growth factor-β (TGF-β)/Smad signaling; conditions: Suh et al., 2003, Minns et al., 2004, Mix et al.; cited from earlier work
[3] = system: heme-oxygenase-1 and Nrf2/ARE signaling; conditions: Liby et al., 2005; cited from earlier work
[4] = Shin et al.; oral gavage 30 μmol/kg three times a week, HFD 82 days; interpretation questioned by the applicant; cited from earlier work
[5] = system: IκB-α; conditions: Saha et al.; liver homogenates, HFD mice; cited from earlier work
[6] = system: AMPK; conditions: Saha et al.; cited from earlier work
[7] = system: N171-82Q mice; conditions: cited from earlier work
[8] = system: GLUT4; assay: Colorimetric assay of cell surface GLUT4 in L6GLUT4myc myotubes (preliminary data); format: cell-based, rat; conditions: FIG. 30
Experimental: Is CDDO-EA-mediated GLUT4 translocation dependent on AMPK activation? The catalytic subunit alpha-1 (α1) of AMPK will be KD by siRNA. Cells will be treated with CDDO-EA (500 nM, 1 hour), insulin ([…] for 15 min), or insulin and CDDO-EA to determine if there is a synergistic effect on GLUT4 translocation. Also, cells will be treated with the AMPK activator, 5-aminoimidazole-4-carboxamide ribonucleoside (AICAR, 1 mM, 40 minutes), as a positive control. We will use a colorimetric assay to quantitatively measure the levels of cell surface GLUT4 in 3T3-L1 adipocytes and L6GLUT4myc myotubes^37. […] GLUT4 translocation will be detected via immunofluorescence. Subcellular protein fractionation will be conducted to detect GLUT4 in the sarcolemma for myotubes and plasma membrane for adipocytes and GLUT2 in the plasma membrane of hepatocytes via Western blotting. GLUT2 will be measured in hepatocytes because GLUT2 is the most abundant glucose transporter in hepatocytes^38. To measure glucose uptake, a non-radioactive, plate-based bioluminescent assay (Glucose Uptake-Glo, Promega) will be performed. Using Glucose Uptake-Glo, insulin induces glucose uptake in L6GLUT4my myotubes. Phosphorylation of AMPK at Thr^172 and phosphorylation of ACC at Ser^79 indicates activation of the AMPK pathway. Thus, phosphorylation of AMPK Thr^172 and ACC Ser^79 will be shown through Western blotting. […]

[9] = system: GLUT4; assay: GLUT4myc translocation by immunofluorescence in L6-GLUT4myc myotubes; format: cell-based, rat; conditions: CDDO-EA 500 nM 1 h; insulin 100 nM 15 min
Experimental: Immunofluorescence and confocal microscopy were employed to visualize the localization of c-myc epitope-tagged GLUT4 in L6-GLUT4myc myotubes treated with CDDO-EA for 1 h. L6-GLUT4myc myotubes were also treated with insulin alone for 15 min as a positive control.
To examine the properties of CDDO-EA in regulating glucose metabolism in the skeletal muscle, the present study examined whether CDDO-EA induces translocation of GLUT4 to the cell surface (FIG. 16A). Immunofluorescence and confocal microscopy were used to visualize the localization of c-myc epitope-tagged GLUT4 in L6-GLUT4myc cells.
Immunofluorescence microscopy: L6-GLUT4myc myoblasts (4×10^4 cells/ml, 0.2 ml/well) were plated onto Nunc Lab-TekII 8-chamber slides (Thermo Fisher Scientific) and differentiated for 7 days. Myotubes were pre-treated with CDDO-EA 500 nM for 1 h followed by LPS 100 ng/ml (E. coli O111: B4, Sigma Aldrich) treatment for 1 h. After treatment, myotubes were fixed, permeabilized, and stained with anti-NF-κB p65 primary antibody (cat #sc-372, 1:100, Santa Cruz Biotechnology) and a goat anti-rabbit secondary antibody conjugated with Alexa Fluor® 488 (cat #A32731, 1:500, Invitrogen) as previously described. For GLUT4myc cell membrane staining, myotubes were pre-treated with CDDO-EA 500 nM for 1 h followed by LPS 100 ng/ml (E. coli 0111: B4, Sigma Aldrich) treatment for 1 h. Insulin 100 nM (cat #19278, Sigma Aldrich) treatment was for 15 min. After CDDO-EA, LPS, and insulin treatment, myotubes were fixed without permeabilization and stained with anti-c-myc primary antibody (cat #C3956, 1:100, Sigma Aldrich) and a goat anti-rabbit secondary antibody conjugated with Alexa Fluor® 488 (cat #A32731, 1:500, Invitrogen) as previously described.

[10] = RAW264.7, 500 nM CDDO-EA batch 1 hour then 100 ng/ml LPS 6 hr
[11] = RAW264.7, 500 nM CDDO-EA batch alone, no LPS
[12] = 500 nM CDDO-EA batch 1 hour then 100 ng/ml LPS 6 hr
[13] = 500 nM CDDO-EA batch alone, no LPS
[14] = Table 5, 500 nM CDDO-EA batch 1 hour then 100 ng/ml LPS 6 hr
[15] = Table 5, 500 nM CDDO-EA batch alone, no LPS

Molecule	MCP-1 level (ELISA), individual values [1, 10]	MCP-1 level (ELISA), individual values [1, 11]	MCP-1 level (ELISA), average [1, 12]	MCP-1 level (ELISA), average [1, 13]	MCP-1 level (ELISA), mean of four values [1, 14]	MCP-1 level (ELISA), mean of four values [1, 15]	modulation of TGF-β/Smad signaling [2]	induction of heme-oxygenase-1 and Nrf2/ARE signaling [3]	further results
CCNC(=O)[C@]12CCC(C)(C)C[C@H]1C1C(=O)C=C3[C@@]4(C)C=C(C#N)C(=O)C(C)(C)[C@@H]4CC[C@@]3(C)[C@]1(C)CC2 (stereo partly drawn) [CDDO-EA #1, (4aS,6aR,6bS,8aR,12aS,14bS)-11-cyano-N-ethyl-2,2,6a,6b,9,9,12a-heptamethyl-10,14-dioxo-1,3,4,5,6,6a,6b,7,8,8a,9,10,12a, 14,14a, 14b-hexadecahydropicene-4a (2H)-carboxamide]	30687 and 31996 and 20309 and 17055	717 and 655 and 740 and 870	31341	686	25012	746	–	–	MCP-1 production ([1]; listed as Batch #1 CDDO-EA): 31300 pg/mL; fold difference in the decrease of MCP-1 production ([1]; listed as Batch #1 CDDO-EA): about 3.6 fold
CCNC(=O)[C@]12CCC(C)(C)C[C@H]1C1C(=O)C=C3[C@@]4(C)C=C(C#N)C(=O)C(C)(C)[C@@H]4CC[C@@]3(C)[C@]1(C)CC2 (stereo partly drawn) [CDDO-EA #2, (4aS,6aR,6bS,8aR,12aS,14bS)-11-cyano-N-ethyl-2,2,6a,6b,9,9,12a-heptamethyl-10,14-dioxo-1,3,4,5,6,6a,6b, 7,8,8a,9,10,12a, 14,14a, 14b-hexadecahydropicene-4a (2H)-carboxamide]	23503 and 25793 and 11890 and 14316	481 and 497 and 314 and 587	24648	489	18875	470	–	–	MCP-1 production ([1]; listed as Batch #2 CDDO-EA): 24600 pg/mL; LPS-induced production of MCP-1 ([1]; RAW264.7, 500 nM 1 hour then 100 ng/ml LPS 6 hr): blocked the LPS-induced production of MCP-1; fold difference in the decrease of MCP-1 production ([1]; listed as Batch #2 CDDO-EA): ~4.6 fold
CC1(C)CC[C@]2(C(=O)n3ccnc3)CC[C@]3(C)[C@H](C(=O)C=C4[C@@]5(C)C=C(C#N)C(=O)C(C)(C)[C@@H]5CC[C@]43C)[C@@H]2C1 [CDDO-Im]	–	–	–	–	–	–	ability to modulate transforming growth factor-β (TGF-β)/Smad signaling	potent inducers of heme-oxygenase-1 and Nrf2/ARE signaling	energy expenditure (EE) [4]: increases energy expenditure (EE) in mice fed a HFD
COC(=O)[C@]12CCC(C)(C)C[C@H]1C1C(=O)C=C3[C@@]4(C)C=C(C#N)C(=O)C(C)(C)[C@@H]4CC[C@@]3(C)[C@]1(C)CC2 (stereo partly drawn) [CDDO-Me, methyl (4aS,6aR,6bS,8aR,12aS,14bS)-11-cyano-2,2,6a,6b,9,9,12a-heptamethyl-10,14-dioxo-1,3,4,5,6,6a,6b,7,8,8a,9,10,12a, 14,14a, 14b-hexadecahydropicene-4a (2H)-carboxylate]	–	–	–	–	–	–	ability to modulate transforming growth factor-β (TGF-β)/Smad signaling	potent inducers of heme-oxygenase-1 and Nrf2/ARE signaling	phosphorylation of IκB-α [5]: increase in phosphorylation of IκB-α; AMPK signaling [6]: activated AMPK signaling in isolated mouse hepatocytes and C2C12 muscle cells
CC1(C)CC[C@]2(C(=O)NCC(F)(F)F)CC[C@]3(C)[C@H](C(=O)C=C4[C@@]5(C)C=C(C#N)C(=O)C(C)(C)[C@@H]5CC[C@]43C)[C@@H]2C1 [CDDO-TFEA]	–	–	–	–	–	–	–	–	muscle strength and balance, survival ([7]; N171-82Q mice): improved muscle strength and balance and increased survival; accumulation in the skeletal muscle ([7]; Stack et al. (2010)): accumulated in the skeletal muscle; oxidative stress in skeletal muscle ([7]; Stack et al. (2010)): oxidative stress in skeletal muscle was reduced
Insulin: positive control for GLUT4myc translocation, 100 nM for 15 min [reference compound]	–	–	–	–	–	–	–	–	GLUT4 translocation to the cell surface (colorimetry assay) [8]: induce GLUT4 translocation to the cell surface; GLUT4myc translocation to the cell surface [9]: induced GLUT4myc translocation into the cell membrane
